Results as given in US12435044B2, “Pyridazinone herbicides and pyridazinone intermediates used to prepare a herbicide” (FMC Corporation, priority 2018, dated 2025).

Tests used:
Format in all cases: in vivo
[1] = tested on: foxtail, green (Setaria viridis); experiment: Test A pre-/postemergence greenhouse test
Description: (§1) Seeds of plant species selected from barnyardgrass (Echinochloa crus-galli), kochia (Kochia scoparia), ragweed (common ragweed, Ambrosia elatior), ryegrass, Italian (Lolium multiflorum), foxtail, giant (Setaria faberii), foxtail, green (Setaria viridis) and pigweed (Amaranthus retroflexus) were planted into a blend of loam soil and sand and treated preemergence with a directed soil spray using test chemicals formulated in a non-phytotoxic solvent mixture which included a surfactant.
(§2) At the same time, plants selected from these weed species and also wheat (Triticum aestivum), corn (Zea mays), blackgrass (Alopecurus myosuroides) and galium (catchweed bedstraw, Galium aparine) were planted in pots containing the same blend of loam soil and sand and treated with postemergence applications of test chemicals formulated in the same manner. Plants ranged in height from 2 to 10 cm and were in the one- to two-leaf stage for the postemergence treatment. Treated plants and untreated controls were maintained in a greenhouse for approximately 10 d, after which time all treated plants were compared to untreated controls and visually evaluated for injury. Plant response ratings, summarized in Table A, are based on a 0 to 100 scale where 0 is no effect and 100 is complete control. A dash (-) response means no test result.

[2] = tested on: foxtail, giant (Setaria faberii); experiment: Test E pre-/postemergence greenhouse test
Description: (§3) Seeds of plant species selected from corn (Zea mays), soybean (Glycine max), velvetleaf (Abutilon theophrasti), lambsquarters (Chenopodium album), poinsettia, wild (Euphorbia heterophylla), pigweed, palmer (Amaranthus palmeri), waterhemp (common waterhemp, Amaranthus rudis), surinam grass (Brachiaria decumbens), crabgrass, large (Digitaria sanguinalis), crabgrass, Brazil (Digitaria horizontalis), panicum, fall (Panicum dichotomiflorum), foxtail, giant (Setaria faberii), foxtail, green (Setaria viridis), goosegrass (Eleusine indica), johnsongrass (Sorghum halepense), ragweed (common ragweed, Ambrosia elatior), barnyardgrass (Echinochloa crus-galli), sandbur (southern sandbur, Cenchrus echinatus), arrowleaf sida (Sida rhombifolia), ryegrass, Italian (Lolium multiflorum), dayflower, VA (Virginia (VA) dayflower, Commelina virginica), field bindweed (Convolvulus arvensis), morningglory (Ipomoea coccinea), horseweed (Conyza canadensis), kochia (Kochia scoparia), nutsedge, yellow (Cyperus esculentus) and hairy beggarticks (Bidenspilosa), were planted into a silt loam soil and treated preemergence with test chemicals formulated in a non-phytotoxic solvent mixture which included a surfactant.
(§4) At the same time, plants selected from these crop and weed species and also waterhemp_RES1, (ALS & Triazine resistant common waterhemp, Amaranthus rudis), and waterhemp_RES2, (ALS & HPPD resistant common waterhemp, Amaranthus rudis) were planted in pots containing Redi-Earth® planting medium (Scotts Company, 14111 Scottslawn Road, Marysville, Ohio 43041) comprising spaghnum peat moss, vermiculite, wetting agent and starter nutrients were treated with postemergence applications of test chemicals formulated in the same manner. Plants ranged in height from 2 to 18 cm for postemergence treatments (1- to 4-leaf stage). Treated plants and controls were maintained in a greenhouse for 14 to 21 d, after which time all species were compared to controls and visually evaluated. Plant response ratings, summarized in Table E, are based on a scale of 0 to 100 where 0 is no effect and 100 is complete control. A dash (-) response means no test result.

[3] = tested on: waterhemp (common waterhemp, Amaranthus rudis); experiment: Test E pre-/postemergence greenhouse test
Description: as §3, §4

[4] = tested on: corn (Zea mays); experiment: Test E pre-/postemergence greenhouse test
Description: as §3, §4

[5] = tested on: barnyardgrass (Echinochloa crus-galli); experiment: Test E pre-/postemergence greenhouse test
Description: as §3, §4

[6] = tested on: soybean (Glycine max); experiment: Test E pre-/postemergence greenhouse test
Description: as §3, §4

[7] = tested on: velvetleaf (Abutilon theophrasti); experiment: Test E pre-/postemergence greenhouse test
Description: as §3, §4

[8] = tested on: foxtail, giant (Setaria faberii); experiment: Test A pre-/postemergence greenhouse test
Description: as §1, §2

SMILES: Cc1ccc2ccc(Cl)cc2c1-c1c(O)c(Cl)nn(C)c1=O [Cpd. No. 22]
- Plant response rating (0 to 100 scale) ([1]; Postemergence, 31 g ai/ha): 100
- Plant response rating (0 to 100 scale) ([1]; Postemergence, 125 g ai/ha): 100
- Plant response rating (0 to 100 scale) ([1]; Preemergence, 31 g ai/ha): 90
- Plant response rating (0 to 100 scale) ([1]; Preemergence, 125 g ai/ha): 100

SMILES: Cc1ccc2ccc(F)cc2c1-c1c(O)c(Cl)nn(C)c1=O [Cpd. No. 21]
- Plant response rating (0 to 100 scale) ([1]; Postemergence, 31 g ai/ha): 90
- Plant response rating (0 to 100 scale) ([1]; Postemergence, 125 g ai/ha): 100
- Plant response rating (0 to 100 scale) ([1]; Preemergence, 31 g ai/ha): 70
- Plant response rating (0 to 100 scale) ([1]; Preemergence, 125 g ai/ha): 100

SMILES: Cc1ccc2ccc(C)c(-c3c(O)c(Cl)nn(C)c3=O)c2c1 [Cpd. No. 20, 6-chloro-4-(2,7-dimethyl-1-naphthalenyl)-5-hydroxy-2-methyl-3(2H)-pyridazinone]
- Plant response rating, Foxtail, Giant ([2]; Preemergence, 16 g ai/ha): 10
- Plant response rating, Foxtail, Giant ([2]; Preemergence, 31 g ai/ha): 60
- Plant response rating, Foxtail, Giant ([2]; Preemergence, 62 g ai/ha): 90
- Plant response rating, Foxtail, Giant ([2]; Preemergence, 125 g ai/ha): 98
- Plant response rating, Waterhemp ([3]; Postemergence, 16 g ai/ha): 75
- Plant response rating, Waterhemp ([3]; Postemergence, 31 g ai/ha): 75
- Plant response rating, Waterhemp ([3]; Postemergence, 62 g ai/ha): 95
- Plant response rating, Waterhemp ([3]; Postemergence, 125 g ai/ha): 90
- Plant response rating, Waterhemp ([3]; Preemergence, 16 g ai/ha): 60
- Plant response rating, Waterhemp ([3]; Preemergence, 31 g ai/ha): 70
- Plant response rating, Waterhemp ([3]; Preemergence, 62 g ai/ha): 98
- Plant response rating, Waterhemp ([3]; Preemergence, 125 g ai/ha): 100
- Plant response rating, Corn ([4]; Postemergence, 16 g ai/ha): 5
- Plant response rating, Corn ([4]; Postemergence, 31 g ai/ha): 20
- Plant response rating, Corn ([4]; Postemergence, 62 g ai/ha): 10
- Plant response rating, Corn ([4]; Postemergence, 125 g ai/ha): 10
- Plant response rating, Corn ([4]; Preemergence, 16 g ai/ha): 0
- Plant response rating, Corn ([4]; Preemergence, 31 g ai/ha): 0
- Plant response rating, Corn ([4]; Preemergence, 62 g ai/ha): 0
- Plant response rating, Corn ([4]; Preemergence, 125 g ai/ha): 0
- Plant response rating, Barnyardgrass ([5]; Preemergence, 16 g ai/ha): 0
- Plant response rating, Barnyardgrass ([5]; Preemergence, 31 g ai/ha): 75
- Plant response rating, Barnyardgrass ([5]; Preemergence, 62 g ai/ha): 80
- Plant response rating, Barnyardgrass ([5]; Preemergence, 125 g ai/ha): 100
- Plant response rating, Soybean ([6]; Postemergence, 16 g ai/ha): 10
- Plant response rating, Soybean ([6]; Postemergence, 31 g ai/ha): 15
- Plant response rating, Soybean ([6]; Postemergence, 62 g ai/ha): 30
- Plant response rating, Soybean ([6]; Postemergence, 125 g ai/ha): 40
- Plant response rating, Soybean ([6]; Preemergence, 16 g ai/ha): 0
- Plant response rating, Soybean ([6]; Preemergence, 62 g ai/ha): 15
- Plant response rating, Soybean ([6]; Preemergence, 125 g ai/ha): 0
- Plant response rating, Velvetleaf ([7]; Preemergence, 16 g ai/ha): 50
- Plant response rating, Velvetleaf ([7]; Preemergence, 31 g ai/ha): 80
- Plant response rating, Velvetleaf ([7]; Preemergence, 62 g ai/ha): 90
- Plant response rating, Velvetleaf ([7]; Preemergence, 125 g ai/ha): 100
- Plant response rating (0 to 100 scale) ([8]; Postemergence, 31 g ai/ha): 80
- Plant response rating (0 to 100 scale) ([8]; Postemergence, 125 g ai/ha): 100
- Plant response rating (0 to 100 scale) ([8]; Preemergence, 31 g ai/ha): 80
- Plant response rating (0 to 100 scale) ([8]; Preemergence, 125 g ai/ha): 100

SMILES: Cc1cc(Cl)c2ccccc2c1-c1c(O)c(Cl)nn(C)c1=O [Cpd. No. 65]
- Plant response rating, Foxtail, Giant ([2]; Postemergence, 16 g ai/ha): 70
- Plant response rating, Foxtail, Giant ([2]; Postemergence, 31 g ai/ha): 88
- Plant response rating, Foxtail, Giant ([2]; Postemergence, 62 g ai/ha): 90
- Plant response rating, Foxtail, Giant ([2]; Postemergence, 125 g ai/ha): 95
- Plant response rating, Foxtail, Giant ([2]; Preemergence, 16 g ai/ha): 5
- Plant response rating, Foxtail, Giant ([2]; Preemergence, 31 g ai/ha): 78
- Plant response rating, Foxtail, Giant ([2]; Preemergence, 62 g ai/ha): 90
- Plant response rating, Foxtail, Giant ([2]; Preemergence, 125 g ai/ha): 100
- Plant response rating, Waterhemp ([3]; Postemergence, 16 g ai/ha): 83
- Plant response rating, Waterhemp ([3]; Postemergence, 31 g ai/ha): 88
- Plant response rating, Waterhemp ([3]; Postemergence, 62 g ai/ha): 99
- Plant response rating, Waterhemp ([3]; Postemergence, 125 g ai/ha): 97
- Plant response rating, Waterhemp ([3]; Preemergence, 16 g ai/ha): 75
- Plant response rating, Waterhemp ([3]; Preemergence, 31 g ai/ha): 90
- Plant response rating, Waterhemp ([3]; Preemergence, 62 g ai/ha): 99
- Plant response rating, Waterhemp ([3]; Preemergence, 125 g ai/ha): 99
- Plant response rating, Corn ([4]; Postemergence, 16 g ai/ha): 0
- Plant response rating, Corn ([4]; Postemergence, 31 g ai/ha): 20
- Plant response rating, Corn ([4]; Postemergence, 62 g ai/ha): 23
- Plant response rating, Corn ([4]; Postemergence, 125 g ai/ha): 35
- Plant response rating, Corn ([4]; Preemergence, 16 g ai/ha): 0
- Plant response rating, Corn ([4]; Preemergence, 31 g ai/ha): 5
- Plant response rating, Corn ([4]; Preemergence, 62 g ai/ha): 20
- Plant response rating, Corn ([4]; Preemergence, 125 g ai/ha): 43
- Plant response rating, Barnyardgrass ([5]; Postemergence, 16 g ai/ha): 80
- Plant response rating, Barnyardgrass ([5]; Postemergence, 31 g ai/ha): 88
- Plant response rating, Barnyardgrass ([5]; Postemergence, 62 g ai/ha): 93
- Plant response rating, Barnyardgrass ([5]; Postemergence, 125 g ai/ha): 95
- Plant response rating, Barnyardgrass ([5]; Preemergence, 16 g ai/ha): 0
- Plant response rating, Barnyardgrass ([5]; Preemergence, 31 g ai/ha): 40
- Plant response rating, Barnyardgrass ([5]; Preemergence, 62 g ai/ha): 38
- Plant response rating, Barnyardgrass ([5]; Preemergence, 125 g ai/ha): 60
- Plant response rating, Soybean ([6]; Postemergence, 16 g ai/ha): 70
- Plant response rating, Soybean ([6]; Postemergence, 31 g ai/ha): 80
- Plant response rating, Soybean ([6]; Postemergence, 62 g ai/ha): 90
- Plant response rating, Soybean ([6]; Postemergence, 125 g ai/ha): 93
- Plant response rating, Soybean ([6]; Preemergence, 16 g ai/ha): 23
- Plant response rating, Soybean ([6]; Preemergence, 31 g ai/ha): 13
- Plant response rating, Soybean ([6]; Preemergence, 62 g ai/ha): 15
- Plant response rating, Soybean ([6]; Preemergence, 125 g ai/ha): 43
- Plant response rating, Velvetleaf ([7]; Postemergence, 16 g ai/ha): 75
- Plant response rating, Velvetleaf ([7]; Postemergence, 31 g ai/ha): 90
- Plant response rating, Velvetleaf ([7]; Postemergence, 62 g ai/ha): 85
- Plant response rating, Velvetleaf ([7]; Postemergence, 125 g ai/ha): 90
- Plant response rating, Velvetleaf ([7]; Preemergence, 16 g ai/ha): 75
- Plant response rating, Velvetleaf ([7]; Preemergence, 31 g ai/ha): 100
- Plant response rating, Velvetleaf ([7]; Preemergence, 62 g ai/ha): 100
- Plant response rating, Velvetleaf ([7]; Preemergence, 125 g ai/ha): 100
- Plant response rating (0 to 100 scale) ([8]; Postemergence, 31 g ai/ha): 100
- Plant response rating (0 to 100 scale) ([8]; Postemergence, 125 g ai/ha): 100
- Plant response rating (0 to 100 scale) ([8]; Preemergence, 31 g ai/ha): 100
- Plant response rating (0 to 100 scale) ([8]; Preemergence, 125 g ai/ha): 100
